The record followed here is patent US9328125B2, “Bivalent AMPA receptor positive allosteric modulators” (The Board of Regents of the University of Texas System, priority 2012, dated 2016).

Experiment [1] deals with AMPA receptor. As to the kind of experiment: Glutamate (100 μM)-evoked calcium influx in DIV9 dissociated rat forebrain neurons. The experiment is classed as cell-based. Conditions: for EC50 / Emax (%) / pEC50 (-logEC50): Glutamate (100 μM)-evoked Ca2+ influx; for enhancement of glutamate-evoked calcium influx, in words: glutamate 100 μM, DIV9 dissociated rat forebrain neurons cultured on PND1. The text has this:
Fluorometric readings were taken from each well every 1.7 seconds for 20 seconds before any addition to record baseline value and for 70 seconds after addition of any compound(s) to monitor the induced changes of calcium influx. Each well's peak fluorescence reading after addition of compound(s) represents effect of a certain concentration of a given compound(s) after subtracting the average baseline fluorescence. Peak fluorometric reading from duplicate or triplicate wells was averaged, and represents the effect of a certain concentration on calcium influx after subtracting control value. […] points were fitted with a sigmoidal function (bottom asymptote=100, nHill=1) by using Prism from GraphPad (San Diego, Calif.) to determine the compound's EC50 (affinity or potency). Each compound's EC50 was summarized from at least 3 individual experiments and presented as the mean±SE.

Experiment [2] deals with PCP-induced caspase-3 activity. The experiment in a line: PCP-induced caspase-3 enzyme activity in organotypic cortical-striatal slices, modulation of the (±)AMPA effect. Conditions: for modulation of AMPA effect on PCP-induced caspase-3 activity, in words: AMPA 1 μM, FIG. 2A-2B; for IC50: Rattus norvegicus. The experiment is classed as cell-based, rat. As to the method:
The inventors have designed and chemically synthesized a class of new bivalent AMPAR ligands (see examples in Table 1). […] The neuroprotective effect of (±)APMA on PCP-induced caspase-3 activities was potentiated by cyclothiazide (CTZ) and aniracetam, two existing AMPAR ligands (approximate IC50 1-3 μM, FIG. 2A for CTZ).
B. Measurement of Caspase-3 Enzyme Activities
Compounds showing significant AMPAR PAM effects on glutamate-induced calcium influx in HEK293 expressing hGluA1i/3i were further tested for their ability to prevent PCP-induced caspase-3 activation in our established in vitro organotypic slice model (Wang et al., Neuropsychopharmacology 32(5): 1178-1194, 2007). Initial screening includes two steps. In step one, all candidates were tested in a single experiment to determine an appropriate approximate concentration range for its effect on PCP-induced caspase-3 activity by adding eight serial concentrations of the compound at log intervals (0, 0.0001-10 μM). Compounds showing promising ˜IC50 (<10 μM) and slope (0.8-1.20) was further screened in a paradigm in which each selected compound was tested in 3 independent experiments to determine its IC50 and slope values by adding eight serial concentrations of the compound at approximately half-log intervals. For all initial screening experiments, rat organotypic brain slice cultures were prepared as previously described (Wang et al., Neuropsychopharmacology 32(5): 1178-1194, 2007). All experiments were executed on DIV10. In each experiment, the slices were pre-treated with the solution vehicle (0.1% DMSO) or 6 serial concentrations of the new compounds for 15 min, followed with (±)APMA (1 μM) (or its vehicle, 0.1% DMSO) for another 15 min. PCP (3 μM) or its vehicle (saline) was added and incubation continued for 6 hrs. The superficial cortical layers of each treated slice were harvested with the aid of an inverted microscopy and placed into ice-cold lysis buffer. Supernatants were collected and caspase-3 activity measured as described previously (Wang et al., Neuropsychopharmacology 32(5): 1178-1194, 2007). Caspase-3 activity was measured over 60 min and calculated as the difference between the substrate degradation rate in samples containing and those not containing Z-DEVD-FMK, a selective caspase-3 inhibitor. Data are expressed as DEVDase activity (AFC pmoles/mg protein/60 min). Protein was measured by the bicinchoninic acid (BCA) technique (Smith et al., 1985), using bovine serum albumin as standards. Each activity measurement was averaged from duplicate samples. Baseline activity (saline treated) was subtracted from all treatments. The caspase-3 activity of in slices incubated with PCP alone served as a positive control. Each compound's activity was normalized to the protective effect of (±)AMPA against PCP (100%). IC50 and slope values were analyzed and determined with the SigmaPlot four-parameter equation as described previously (Petukhov et al., J Med Chem 47(12): 3009-3018, 2004). Each compound's IC50 and slope values were determined from data in at least 3 individual experiments. Group data is reported as mean±SEM.

The test system of experiment [3] is morphine tolerance. The experiment in a line: Morphine tolerance, tail-flick test. The class given is in vivo, mouse. To be noted: 10 mg/kg. As to the method:
The tail-flick test was used to determine basal nociception and morphine antinociception as described previously (Wang et al., J Neurosci 21:1779-86, 2001; Tang et al., J Pharmacol Exp Ther 317:901-909, 2006). In brief, One third of the distal portion of mouse tail was immersed into a water bath maintained at 52° C., and the latency of a quick tail-flick response was recorded. Morphine-antinociception was evaluated 30 min after a test dose of morphine (10 mg/kg s.c. unless otherwise stated) and is expressed as the percentage of maximal possible effect (MPE). MPE %=100%×(postdrug latency−predrug latency)/(cutoff−predrug latency). A 12-s cutoff time was used to prevent tissue damage (FIG. 9A and FIG. 10A).
(§1) G. Chronic Opioid Tolerance and Dependence.
(§2) To induce chronic opioid tolerance and dependence, mice were treated with morphine (10 mg/kg s.c., given at 8:00 AM and 6:00 PM) for 5 days (Herz and Teschemacher, Experientia 29:64-65, 1973). Control mice received an equal number and volume of injections with saline. Morphine tolerance and naloxone-precipitated withdrawal were evaluated. Haloperidol (0.1-1.0 mg/kg i.p. or p.o.) was given 30 min before the test dose of morphine or naloxone (FIG. 9B and FIG. 10B).
In general terms: In hot-plate and tail-flick tests a longer latency is read as antinociception.

Experiment [4] relates to PCP-induced cleaved caspase-3 immunoreactive neurons in frontal cortex (M2/1). As to the kind of experiment: Image analysis of cleaved caspase-3 immunoreactive neurons in frontal cortex (M2/1) of PND7 rats exposed to PCP. The class given is in vivo, rat. The method, then: Cleaved caspase-3 immunoreactive neurons, 8 hrs on PND7 after Saline (A) or PCP (10 mg/kg, sc, B-E) without (A-B) or with (C-E) pretreatment (30 min prior to PCP) of HJC-1-22 (C, 0.1 mg/kg; D, 1 mg/kg; E, 10 mg/kg, sc) were shown.
C. Image Analysis of Cleaved Caspase-3 Immunoreactive Neurons
PCP induces developmental neuroapoptosis via caspase-3 activation in vulnerable neurons (Wang et al., Neuropsychopharmacology 32(5): 1178-1194, 2007). Caspase-3 activation in vivo can be observed by immunohistochemistry with specific antibodies against cleaved caspase-3 protein and quantified by image analysis of cleaved caspase-3 immunoreactive neurons in specific brain region(s) or sub-region(s) in developing brain. Compounds showing significant AMPAR PAM effects on glutamate-induced calcium influx in HEK293 expressing hGluA1i/3i and significant preventive effect on PCP-induced caspase-3 enzyme activities in organotypic slices were further defined their abilities to block PCP-induced apoptosis in vivo.
PND7 rat pups were used in the in vivo studies. […]
In step 1, each candidate was tested in two (n=2) individual experiments by using PND7 rat pups from 2 different liters. […] The activity percentages (%) of each dose vs. PCP were calculated to estimate its IC50 which was used to determine its in vivo effective dose range for the step 2 study. […]

The test system of experiment [5] is morphine physical dependence. The experiment in a line: Morphine physical dependence, naloxone-precipitated withdrawal. The class given is in vivo, mice. Conditions: 10 mg/kg. The method, then:
as §1, §2

[6] abbreviates: existing AMPAR ligands, FIG. 2A for CTZ, read-out: approximate IC50, potentiation of neuroprotective effect of (±)AMPA on PCP-induced caspase-3 activities.
Where [7] appears, read: organotypic slices, (±)AMPA 1 μM, PCP 3 μM, read-out: IC50, modulation of (±)AMPA effect on PCP-induced caspase-3 activity.

SMILES strings stand for the structures. Like-named read-outs stand apart in the source and are kept apart here.

For the compound `CC(C)S(=O)(=O)NC[C@H](C)c1ccc(-n2ccc3cc(C(=O)N4CCCC4)ccc32)cc1` [HJC0210, Propane-2-sulfonic acid (2-{4-[5-(pyrrolidine-1-carbonyl)-indol-1-yl]-phenyl}-propyl)amide], in experiment [1], the EC50 (as a rule, the concentration needed to bring the measured effect to its halfway point) was found to be 0.06 nM; the “Emax (%)” value amounted to 157.5%; the “pEC50 (-logEC50)” value was 10.21; the “enhancement of glutamate-evoked calcium influx, in words” value is on record as “enhanced glutamate (100 μM)-evoked calcium influx in a concentration-dependent manner”.

For the compound `NS(=O)(=O)c1cc2c(cc1Cl)NC(C1CC3C=CC1C3)NS2(=O)=O` (centres unmarked) [CTZ, cyclothiazide, reference compound], the “modulation of AMPA effect on PCP-induced caspase-3 activity, in words” value (from here on “modulation of AMPA effect”) in experiment [2] (PCP 3 μM) is recorded as “concentration-dependent fashion”. Besides, the IC50 (as a rule, the midpoint of a concentration-inhibition curve) in experiment [2] (setting [6]) was 1000 to 3000 nM.

On to `CC(C)S(=O)(=O)NC[C@H](C)c1ccc(-c2ccc(CCNS(C)(=O)=O)cc2)cc1` [LY451395, reference compound], for which the “enhancement of glutamate-evoked calcium influx, in words” value in experiment [1] is “enhanced glutamate (100 μM)-evoked calcium influx in a concentration-dependent manner”.

In the case of `CC(C)S(=O)(=O)NC[C@H](C)c1ccc(-c2ccnc(C(=O)N3CCCC3)c2)cc1` [HJC-1-22, Propane-2-sulfonic acid (2-{4-[2-(pyrrolidine-1-carbonyl)-pyridin-4-yl]phenyl}-propyl)-amide], the “reversal of established morphine tolerance” value in experiment [3] (FIG. 9A) was “reversed established morphine tolerance”. Also, the “prevention of development of morphine tolerance” value in experiment [3] (FIG. 10A) is “prevented the development of morphine tolerance”. Further, in experiment [1], the EC50 was determined as 6.53 nM; the “Emax (%)” value was found to be 170.0%; the “pEC50 (-logEC50)” value turned out to be 8.28; the “enhancement of glutamate-evoked calcium influx, in words” value was “enhanced glutamate (100 μM)-evoked calcium influx in a concentration-dependent manner”. Also, the “prevention of PCP (10 mg/kg)-induced caspase-3 activation in frontal cortex” value in experiment [4] (10 mg/kg sc, 30 min prior to PCP (10 mg/kg, sc)) stood at 85%. Moreover, the “effect on PCP-induced cleaved caspase-3 immunoreactive neurons in frontal cortex (M2/1), in words” value in experiment [4] (0.1, 1, 10 mg/kg sc, 30 min prior to PCP, 8 hrs) is listed as “significantly reduced PCP-induced cleaved caspase-3 immunoreactive neurons”. Further, the “reversal of morphine physical dependence” value in experiment [5] (FIG. 9B) is “partially reversed physical dependence”. The “prevention of morphine physical dependence” value in experiment [5] (FIG. 10B) was “partially prevented physical dependence”. Besides, the “modulation of AMPA effect” value in experiment [2] (PCP 3 μM) is given as “displayed more potent activity than LY451395”. In experiment [2] (setting [7]), the IC50 stood at 15 nM.

As to `CC(C)S(=O)(=O)NC[C@H](C)c1ccc(-c2ccc(CCN3CCCC3=O)cc2)cc1` [HJC0173, Propane-2-sulfonic acid (2-{4′-[2-(2-oxo-pyrrolidin-1-yl)-ethyl]-biphenyl-4-yl}-propyl)amide], in experiment [1], the EC50 amounted to 4.02 nM, the “Emax (%)” value is reported as 127.1% and the “pEC50 (-logEC50)” value amounted to 8.39.

Regarding `COc1ccc(C(=O)N2CCCC2=O)cc1` [aniracetam, reference compound], the IC50 in experiment [2] (setting [6]) lay in the range of 1000 to 3000 nM.

With `CC(C)S(=O)(=O)NC[C@H](C)c1ccc(-n2ccc3ncccc32)cc1` [HJC0229, Propane-2-sulfonic acid [2-(4-pyrrolo[3,2-b]pyridin-1-yl-phenyl)-propyl]amide], in experiment [1], the EC50 stood at 8.76 nM, the “Emax (%)” value stood at 168.9% and the “pEC50 (-logEC50)” value is reported as 8.06.

As for `CC(C)S(=O)(=O)NC[C@H](C)c1ccc(-n2ccc3cc(C(=O)N4CCCCC4)ccc32)cc1` [HJC-1-24, Propane-2-sulfonic acid (2-{4-[5-(piperidine-1-carbonyl)-indol-1-yl]-phenyl}-propyl)amide], the “modulation of AMPA effect” value in experiment [2] (PCP 3 μM) is “displayed more potent activity than LY451395”. The IC50 in experiment [2] (setting [7]) came to 5 nM. Also, the “fold more potent than CTZ (IC50, caspase-3 activity)” value in experiment [2] (versus CTZ) is on record as “at least 200 fold”.
